Measurements reported in US20210386367A1, “DEVICES AND SYSTEMS FOR GASTROINTESTINAL MICROBIOME DETECTION AND MANIPULATION” (Progenity, Inc., priority 2018, published 2021).
Converted amounts (≈) assume the structure as drawn.

Legend:
Format in all cases: cell-based
[1] = system: Streptococcus pyogenes clinical isolates; experiment: MIC distribution against clinical isolates; settings: 19 S. pyogenes isolates
Source text: (§1) As used herein, “minimum inhibitory concentration” or “MIC” refers to the lowest concentration of an antimicrobial agent, for example, an antimicrobial agent as described herein, required to inhibit the growth of an organism. […] “MIC90” represents the MIC value at which ≥90% of the strains within a test population are inhibited; the 90th percentile.
(§2) Many susceptibility testing methods are known in the art and can be used as described herein (see, e.g., Jorgensen and Ferraro (2009) Clinical Infectious Diseases 49:1749-1755; and Maurer et al. (2017) Infectious Disease Reports 9:6839; the entire contents of each of the foregoing are incorporated herein by reference). For example, antimicrobial susceptibility can be determined using conventional culture based methods such as the broth or agar dilution test. In these dilution tests, the bacterial isolate of interest is inoculated onto different media that include serial dilutions of an antimicrobial agent, and incubated under appropriate conditions (e.g., overnight at 37° C.) to allow for growth to occur. Following the incubation period, the media is examined to determine bacterial growth. The lowest concentration of antibiotic that prevents growth represents the minimal inhibitory concentration (MIC). Broth dilution tests can be miniaturized and mechanized allowing for reproducibility and high throughput.

[2] = system: Viridans group Streptococci clinical isolates; experiment: MIC distribution against clinical isolates; settings: 15 Viridans group Streptococci isolates
Source text: as §1, §2

Enterococcus faecalis = experiment: Broth microdilution MIC, 50 clinical isolates
Outline: (§3)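 CLSI broth microdilution in cation-adjusted Mueller Hinton broth, with 3% lysed horse blood added for streptococci, which were incubated with CO2.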

Staphylococcus aureus = experiment: Broth microdilution MIC, 50 clinical isolates (28 MRSA)
Outline: as §3

Streptococcus spp. = experiment: Broth microdilution MIC, 54 clinical isolates; settings: 54 Streptococcus spp. clinical isolates
Description: (§4) Minimal inhibitory concentration (MIC) values were determined by broth microdilution or agar dilution in accordance with guidelines from the Clinical and Laboratory Standards Institute (CLSI; (1) “Methods for Dilution Antimicrobial Susceptibility Tests for Bacteria That Grow Aerobically; Approved Standard; 11th ed.” CLSI standard M07-A11, 2018; (2) “Performance Standards for Antimicrobial Susceptibility Testing; Twenty-Eighth Informational Supplement,” CLSI document M100-S28, 2018; and (3) “Methods for Antimicrobial Susceptibility Testing of Anaerobic Bacteria; Approved Standard—Eighth Edition,” CLSI document M11-A8, 2012).
(§5) Tested aerobically by broth microdilution: • Escherichia coli, n=50 • Klebsiella spp., n=50 • Pseudomonas aeruginosa, n=50 • Streptococcus spp., n=50 • Staphylococcus aureus, n=50 • Enterococcus faecalis, n=50 • Enterobacter aerogenes, n=50 • Proteus mirabilis, n=50
(§6) Broth microdilution testing of aerobic bacteria was conducted in cation-adjusted Mueller Hinton broth (MHBII). For testing streptococci, lysed horse blood (LHB) was added to MHBII broth at a final concentration of 3%. Where LHB was used, it was added after filtering.
(§7) Broth microdilution susceptibility testing in 96-well microplates was conducted in accordance with CLSI methods (1) and (2). Automated liquid handlers were used to conduct serial dilutions and liquid transfers, including the Multidrop 384 (Labsystems, Helsinki, Finland), Biomek 2000, and the Biomek FX (Beckman Coulter, Fullerton, Calif.). All wells in columns 2 through 12 of a standard 96-well microdilution plate (Costar 3795) were filled with 150 μL of the appropriate diluent. Then, 300 μL of the test agents were added to the wells of column 1 of the plates at 100× the highest final concentration to be tested. Serial two-fold dilutions were made across the rows through column 11 using the Biomek 2000. The wells of column 12 contained no drug and served as the growth control wells. This plate served as the “mother plate” from which MIC assay plates or “daughter plates” were made.
(§8) The daughter plates were loaded with 190 μL per well of the appropriate medium using the Multidrop 384. The daughter plates were created using the Biomek FX which transferred 2 μL of drug solution from each well of a mother plate to each corresponding well of the daughter plate in a single step. A standardized inoculum of each test organism was prepared per CLSI methods (1) to equal a 0.5 McFarland standard, followed by a dilution of 1:20 for aerobes and 1:10 for anaerobes. The plates were then inoculated with 10 μL of the diluted inoculum using the Biomek 2000 from low to high drug concentration, resulting in a final concentration of approximately 5×10^5 CFU/mL per well. An un-inoculated plate was incubated in parallel for each medium for the purpose of assessing solubility of the drug in the test media.
(§9) Inoculated plates were stacked 3 or 4 high, covered with a sterile lid on the top plate, placed into boxes with CO2 planchets (streptococci) or plastic bags (all other isolates). Plates were incubated at 35° C. for 16-24 hr in ambient air for aerobes or for 42-48 hr in the anaerobic environment of the Bactron II anaerobe chamber (Sheldon Manufacturing Co.; Cornelius, Oreg.). Following incubation, the microplates were removed from the incubator and viewed from the bottom using a plate viewer. The MIC values were read and recorded as the lowest concentration of drug that inhibited visible growth of the organism as per CLSI methods (1) and (2).

Streptococcus pyogenes = experiment: Broth microdilution MIC, 19 clinical isolates
Description: as §4, §5, §6, §7, §8, §9

Streptococcus agalactiae = experiment: Broth microdilution MIC, 20 clinical isolates; settings: 20 Streptococcus agalactiae clinical isolates
Description: as §4, §5, §6, §7, §8, §9

[3] = system: Viridans group Streptococcus; experiment: Broth microdilution MIC, 15 clinical isolates; settings: 15 Viridans group Streptococci clinical isolates
Description: as §4, §5, §6, §7, §8, §9

SMILES: COc1c(N2C[C@@H]3CCCN[C@@H]3C2)c(F)cc2c(=O)c(C(=O)O)cn(C3CC3)c12 [moxifloxacin]
- Cumulative percentage of isolates inhibited at MIC ([1]; MIC 0.06 μg/mL): 31.6%
- Number of test isolates at MIC ([1]; MIC 0.06 μg/mL): 6
- Cumulative percentage of isolates inhibited at MIC ([1]; MIC 0.5 μg/mL): 100.0%
- Number of test isolates at MIC ([1]; MIC 0.5 μg/mL): 1
- Cumulative percentage of isolates inhibited at MIC ([2]; MIC 0.06 μg/mL): 26.7%
- Number of test isolates at MIC ([2]; MIC 0.06 μg/mL): 4
- Cumulative percentage of isolates inhibited at MIC ([2]; MIC 2 μg/mL): 80.0%
- Number of test isolates at MIC ([2]; MIC 2 μg/mL): 2
- Cumulative percentage of isolates inhibited at MIC ([2]; MIC 4 μg/mL): 93.3%
- Number of test isolates at MIC ([2]; MIC 4 μg/mL): 2
- Cumulative percentage of isolates inhibited at MIC ([2]; MIC 8 μg/mL): 100.0%
- Number of test isolates at MIC ([2]; MIC 8 μg/mL): 1
- Mode (Enterococcus faecalis): >8 µg/mL
- MIC50 (Enterococcus faecalis; Enterococcus faecalis, read-out: MIC50): 0.5 µg/mL (≈ 1.25 µM)
- MIC90 (Enterococcus faecalis; Enterococcus faecalis, read-out: MIC90): > 8 µg/mL
- Mode (Staphylococcus aureus): 1 µg/mL
- MIC50 (Staphylococcus aureus; Staphylococcus aureus, read-out: MIC50): 0.12 µg/mL (≈ 0.299 µM)
- MIC90 (Staphylococcus aureus; Staphylococcus aureus, read-out: MIC90): 2 µg/mL (≈ 4.98 µM)
- MIC range (Streptococcus spp.): 0.06 to 8 µg/mL
- MIC50 (Streptococcus spp.; read-out: MIC50): 0.12 µg/mL (≈ 0.299 µM)
- MIC90 (Streptococcus spp.; read-out: MIC90): 0.5 µg/mL (≈ 1.25 µM)
- Mode (Streptococcus spp.; modal MIC): 0.12 µg/mL
- MIC range (Streptococcus pyogenes): 0.06 to 0.5 µg/mL
- Mode (Streptococcus pyogenes): 0.12 µg/mL
- MIC50 (Streptococcus pyogenes; Streptococcus pyogenes, read-out: MIC50): 0.12 µg/mL (≈ 0.299 µM)
- MIC90 (Streptococcus pyogenes; Streptococcus pyogenes, read-out: MIC90): 0.25 µg/mL (≈ 0.623 µM)
- MIC range (Streptococcus agalactiae): 0.06 to 0.25 µg/mL
- MIC50 (Streptococcus agalactiae; read-out: MIC50): 0.12 µg/mL (≈ 0.299 µM)
- MIC90 (Streptococcus agalactiae; read-out: MIC90): 0.12 µg/mL (≈ 0.299 µM)
- Mode (Streptococcus agalactiae; modal MIC): 0.12 µg/mL
- MIC range [3]: 0.06 to 8 µg/mL
- MIC50 ([3]; Streptococcus, read-out: MIC50): 0.12 µg/mL (≈ 0.299 µM)
- MIC90 ([3]; Streptococcus, read-out: MIC90): 4 µg/mL (≈ 9.96 µM)
- Mode ([3]; modal MIC): 0.06 µg/mL
